# According to US20190119282A1, “IMIDAZOPYRIDAZINES USEFUL AS INHIBITORS OF THE PAR-2 SIGNALING PATHWAY” (Vertex Pharmaceuticals Incorporated, priority 2013, published 2019):
# Columns and labels:
# Conditions in all cases: HT-29 cells, antagonist mode
# [1] = system: UTP-stimulated Ca2+ response in HT-29 cells; experiment: Ca FLIPR TETRA assay, ANTAGONIST mode, stimulation with 0.6 μM UTP; assay type: cell-based, human
# How it was run: (§1)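 Antagonist-mode FLIPR Tetra Ca2+ readout: after 30 min r.t. compound pre-incubation, HT-29 cells are challenged with trypsin (3.1 U/mL final), SLIGKV (8 μM), thrombin (1 U/mL) or UTP (0.6 μM). Cells were plated overnight in 1% FBS medium and dye-loaded with Calcium 5; an initial read checks compound agonism.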
# [2] = molecular target: T1, PAR2 (HT-29 cells, trypsin activation) (Homo sapiens, UniProt P55085); experiment: Ca FLIPR TETRA assay, ANTAGONIST mode, stimulation with 3.1 U/mL trypsin; assay type: cell-based
# T1 construct: host or cells: HT-29 cells
# T1 sequence (P55085 26-397): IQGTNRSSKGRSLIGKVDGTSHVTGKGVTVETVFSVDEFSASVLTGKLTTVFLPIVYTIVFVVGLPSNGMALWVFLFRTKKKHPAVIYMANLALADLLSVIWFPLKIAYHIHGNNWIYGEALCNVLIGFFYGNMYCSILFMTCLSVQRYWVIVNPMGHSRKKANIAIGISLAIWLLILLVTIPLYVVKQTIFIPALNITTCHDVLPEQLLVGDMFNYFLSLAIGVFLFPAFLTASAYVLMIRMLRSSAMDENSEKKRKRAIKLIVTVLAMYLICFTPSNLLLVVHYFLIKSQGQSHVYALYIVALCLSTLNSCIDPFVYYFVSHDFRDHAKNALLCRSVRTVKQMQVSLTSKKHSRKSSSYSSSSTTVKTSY
# How it was run: as §1
# [3] = system: Thrombin-stimulated Ca2+ response in HT-29 cells; experiment: Ca FLIPR TETRA assay, ANTAGONIST mode, stimulation with 1 U/mL Thrombin; assay type: cell-based, human
# How it was run: as §1
# [4] = molecular target: T2, PAR2 (HT-29 cells, SLIGKV activation) (Homo sapiens, UniProt P55085); experiment: Ca FLIPR TETRA assay, ANTAGONIST mode, stimulation with 8 μM SLIGKV; assay type: cell-based
# T2 construct: host or cells: HT-29 cells
# T2 sequence (P55085 26-397): T1 sequence (P55085 26-397)
# How it was run: as §1
# [5] = Homo sapiens, stimulation with 0.6 μM UTP
# [6] = stimulation with 3.1 U/mL trypsin
# [7] = Homo sapiens, stimulation with 1 U/mL Thrombin
SMILES,"IC50 [1, 5] [nM]","IC50 [2, 6] [nM]","IC50 [3, 7] [nM]",IC50 ([4]; stimulation with 8 μM SLIGKV) [nM],IC50 ([1]; stimulation with 0.6 μM UTP) [nM],IC50 ([3]; stimulation with 1 U/mL Thrombin) [nM],"IC50 ([1]; Homo sapiens, 0.6 μM UTP) [nM]",IC50 ([2]; 3.1 U/mL trypsin) [nM],"IC50 ([3]; Homo sapiens, 1 U/mL Thrombin) [nM]",IC50 ([4]; 8 μM SLIGKV) [nM]
COC(=O)C(C)(C)CC(=O)N1CCN(C(=O)c2cn3nc(-c4ccc(F)cc4)cc(C(C)(C)C)c3n2)C(C)(C)C1 [Compound I-528],> 1000,4.2,> 1000,1.8,–,–,–,–,–,–
COC(=O)CCC(=O)N1CCN(C(=O)c2cn3nc(-c4ccc(F)cc4)cc(C(C)(C)C)c3n2)C(C)(C)C1 [Compound I-529],> 1000,3.7,> 1000,2.2,–,–,–,–,–,–
COC(=O)C12CC(C(=O)N3CCN(C(=O)c4cn5nc(-c6ccc(F)cc6)cc(C(C)(C)C)c5n4)C(C)(C)C3)(C1)C2 [Compound I-530],500,2.2,410,1.3,–,–,–,–,–,–
CCOC(=O)/C=C/C(=O)N1CCN(C(=O)c2cn3nc(-c4ccc(F)cc4)cc(C(C)(C)C)c3n2)C(C)(C)C1 [Compound I-531],> 1000,2,> 1000,1.2,–,–,–,–,–,–
COC(=O)C1(C)CCC(C(=O)N2CCN(C(=O)c3cn4nc(-c5ccc(Cl)cc5)cc(C(C)(C)C)c4n3)C(C)(C)C2)CC1 (stereo not drawn) [Compound I-532],> 1000,1.1,> 1000,0.8,–,–,–,–,–,–
CC(C)(C)c1cc(C2CCC(F)(F)CC2)nn2cc(C(=O)N3CCN(C(=O)[C@H]4CC[C@@H](C(=O)O)CC4)CC3(C)C)nc12 [Compound I-533],> 1000,7.9,> 1000,4.7,–,–,–,–,–,–
CC1(C(=O)O)CCC(C(=O)N2CCN(C(=O)c3cn4nc(-c5ccc(Cl)cc5)cc(C(C)(C)C)c4n3)C(C)(C)C2)CC1 (stereo not drawn) [Compound I-534],> 1000,0.1,> 1000,0.08,–,–,–,–,–,–
CC(C)(C)c1cc(-c2ccc(N=[N+]=[N-])cc2)nn2cc(C(=O)N3CCNC(=O)C3(C)C)nc12 [Compound I-536],> 1000,235,> 1000,170,–,–,–,–,–,–
COC(=O)C1CC(C(=O)N2CCN(C(=O)c3cn4nc(-c5ccc(F)cc5)cc(C(C)(C)C)c4n3)C(C)(C)C2)C1 (stereo not drawn) [Compound I-537],> 1000,1.2,> 1000,0.8,–,–,–,–,–,–
COC(=O)[C@H]1CC[C@@H](C(=O)N2CCN(C(=O)c3cn4nc(-c5ccc(Cl)cc5)cc(C(C)C)c4n3)C(C)(C)C2)CC1 [Compound I-539],> 1000,1.3,> 1000,0.8,–,–,–,–,–,–
CC(C)c1cc(-c2ccc(Cl)cc2)nn2cc(C(=O)N3CCN(C(=O)[C@H]4C[C@H](O)C4)CC3(C)C)nc12 [Compound I-540],> 1000,8.2,> 1000,4.2,–,–,–,–,–,–
CC(C)c1cc(-c2ccc(Cl)cc2)nn2cc(C(=O)N3CCN(C(=O)[C@H]4C[C@@](C)(O)C4)CC3(C)C)nc12 [Compound I-541],> 1000,1.5,> 1000,1,–,–,–,–,–,–
CC(C)c1cc(-c2ccc(Cl)cc2)nn2cc(C(=O)N3CCN(C(=O)[C@H]4C[C@](O)(C(F)(F)F)C4)CC3(C)C)nc12 [Compound I-542],> 1000,0.3,> 1000,0.2,–,–,–,–,–,–
CC(C)c1cc(-c2ccc(Cl)cc2)nn2cc(C(=O)N3CCN(C(=O)[C@H]4C[C@@H](O)C4)CC3(C)C)nc12 [Compound I-543],> 1000,4.8,> 1000,3.2,–,–,–,–,–,–
COC(=O)C1CC(C(=O)N2CCN(C(=O)c3cn4nc(-c5ccc(Cl)cc5)cc(C(C)C)c4n3)C(C)(C)C2)C1 (stereo not drawn) [Compound I-544],> 1000,1.8,> 1000,1.5,–,–,–,–,–,–
COC(=O)C1CC(C(=O)N2CCN(C(=O)c3cn4nc(-c5ccc(Cl)cc5)cc(C(C)C)c4n3)C(C)(C)C2)C1 (stereo not drawn) [Compound I-545],–,1.9,–,1.1,> 1000,> 1000,–,–,–,–
COC(=O)[C@H]1CC[C@H](C(=O)N2CCN(C(=O)c3cn4nc(-c5ccc(Cl)cc5)cc(C(C)C)c4n3)C(C)(C)C2)CC1 [Compound I-546],> 1000,1.6,> 1000,1.8,–,–,–,–,–,–
C[C@H]1C(=O)NCCN1C(=O)c1cn2nc(-c3ccc(F)cc3)cc(C(C)(C)C)c2n1 [Compound I-547],> 1000,> 1000,> 1000,635,–,–,–,–,–,–
C[C@@H]1C(=O)NCCN1C(=O)c1cn2nc(-c3ccc(F)cc3)cc(C(C)(C)C)c2n1 [Compound I-548],> 1000,> 1000,> 1000,545,–,–,–,–,–,–
CC(C)c1cc(-c2ccc(Cl)cc2)nn2cc(C(=O)N3CCN(C(=O)[C@H]4CC[C@H](C(=O)O)CC4)CC3(C)C)nc12 [Compound I-549],> 1000,57.5,> 1000,27.5,–,–,–,–,–,–
COC(=O)[C@H]1CC[C@@H](C(=O)N2CCN(C(=O)c3cn4nc(C(C)C)cc(C(C)C)c4n3)C(C)(C)C2)CC1 [Compound I-550],> 30000,1050,> 30000,773,–,–,–,–,–,–
"CC(C)c1cc(C(C)C)c2nc(C(=O)N3CCN(C(=O)C4CCC(C(=O)O)CC4)CC3(C)C)cn2n1 (stereo not drawn) [Compound I-551, 4-[4-(6,8-diisopropylimidazo[1,2-b]pyridazine-2-carbonyl)-3,3-dimethyl-piperazine-1-carbonyl]cyclohexanecarboxylic acid]",> 30000,1500,> 30000,970,–,–,–,–,–,–
Cc1n[nH]c(C(=O)N2CCN(C(=O)c3cn4nc(-c5ccc(F)cc5)cc(C(C)C)c4n3)CC2)n1 [Compound I-552],> 1000,720,> 1000,720,–,–,–,–,–,–
CC(C)c1cc(-c2ccc(Cl)cc2)nn2cc(C(=O)N3CCN(C(=O)[C@H]4C[C@@H](C(=O)O)C4)CC3(C)C)nc12 [Compound I-553],> 1000,49.5,> 1000,24,–,–,–,–,–,–
CC(C)c1cc(-c2ccc(Cl)cc2)nn2cc(C(=O)N3CCN(C(=O)[C@H]4C[C@H](C(=O)O)C4)CC3(C)C)nc12 [Compound I-554],–,–,–,–,–,–,> 1000,11.2,> 1000,9.3
"CC(C)(C)c1cc(-c2ccc(F)cc2)nn2cc(C(=O)N3CCN(C(=O)[C@H]4C[C@@H](C(=O)O)C4)CC3(C)C)nc12 [Compound I-555, (1S,3S)-3-(4-(8-(tert-butyl)-6-(4-fluorophenyl)imidazo[1,2-b]pyridazine-2-carbonyl)-3,3-dimethylpiperazine-1-carbonyl)cyclobutane-1-carboxylic acid]",–,–,–,–,–,–,> 1000,7.8,> 1000,4.2
"CC(C)(C)c1cc(-c2ccc(F)cc2)nn2cc(C(=O)N3CCN(C(=O)[C@H]4C[C@H](C(=O)O)C4)CC3(C)C)nc12 [Compound I-556, (1R,3R)-3-(4-(8-(tert-butyl)-6-(4-fluorophenyl)imidazo[1,2-b]pyridazine-2-carbonyl)-3,3-dimethylpiperazine-1-carbonyl)cyclobutane-1-carboxylic acid]",–,–,–,–,–,–,> 1000,21,> 1000,9
